# Literature values in patent US20160326157A1, “MONOBACTAMS AND METHODS OF THEIR SYNTHESIS AND USE” (PRESIDENT AND FELLOWS OF HARVARD COLLEGE, priority 2014, published 2016).
# Key:
# [1] = tested on: Gram-positive or anaerobic bacteria
# [2] = in vivo
smiles,measurement,setting,value
C[C@H]1[C@H](NC(=O)/C(=N\OC(C)(C)C(=O)O)c2csc(N)n2)C(=O)N1S(=O)(=O)O [Aztreonam],activity against Gram-positive or anaerobic bacteria,[1],inactive
same,concentration inhibiting most Enterobacteriaceae,Enterobacteriaceae,less than 0.5 g/mL
same,absorption from the gastrointestinal tract,[2],not absorbed
same,route of excretion,[2],renally excreted
